The text below walks through data of publication PMC5543143, “Structural Basis for the Mechanism of ATP-Dependent Acetone Carboxylation” (Scientific Reports, 2017).

Series [1] addresses T1, native acetone carboxylase (AC) from X. autotrophicus 7C (Xanthobacter versatilis, UniProt Q8RM03+Q8RM04). Kind of series: X-ray crystal structure. The format is binding. The arrangement: gene acxA; native purification from acetone-grown cells, untagged; (alpha beta gamma)2 heterohexamer, 360 kDa; with Acetone carboxylase gamma subunit. The conditions noted are these: co-crystallised with 10 mM ATP and 10 mM acetone; AMP bound at beta subunit; acetate at Mn site; pH 7.5.

For series [2], the target named is T1, native acetone carboxylase (AC) from X. autotrophicus 7C. The arrangement: gene acxA. The conditions noted are these: with acetone and HCO3-; turnover only.
Series [3] has as its target T2, acetone carboxylase (AC, XaAC), recombinant (Xanthobacter versatilis, UniProt Q8RM03+Q8RM04).
T2 construct: gene acxA
The conditions noted are these: turnover only.

Series [4] concerns the molecule itself. Kind of series: crystal structure; recombinant AC (αβγ)2, ligand-free and AMP-bound; hanging drop, 25 °C, 14-18% PEG 3350, 0.2 M MgSO4, pH 6.3; nucleotide additives 5 mM; SAD with selenium.

Like-named read-outs stand apart in the source and are kept apart here.

T2 sequence (Q8RM04 whole entry, one chain of several): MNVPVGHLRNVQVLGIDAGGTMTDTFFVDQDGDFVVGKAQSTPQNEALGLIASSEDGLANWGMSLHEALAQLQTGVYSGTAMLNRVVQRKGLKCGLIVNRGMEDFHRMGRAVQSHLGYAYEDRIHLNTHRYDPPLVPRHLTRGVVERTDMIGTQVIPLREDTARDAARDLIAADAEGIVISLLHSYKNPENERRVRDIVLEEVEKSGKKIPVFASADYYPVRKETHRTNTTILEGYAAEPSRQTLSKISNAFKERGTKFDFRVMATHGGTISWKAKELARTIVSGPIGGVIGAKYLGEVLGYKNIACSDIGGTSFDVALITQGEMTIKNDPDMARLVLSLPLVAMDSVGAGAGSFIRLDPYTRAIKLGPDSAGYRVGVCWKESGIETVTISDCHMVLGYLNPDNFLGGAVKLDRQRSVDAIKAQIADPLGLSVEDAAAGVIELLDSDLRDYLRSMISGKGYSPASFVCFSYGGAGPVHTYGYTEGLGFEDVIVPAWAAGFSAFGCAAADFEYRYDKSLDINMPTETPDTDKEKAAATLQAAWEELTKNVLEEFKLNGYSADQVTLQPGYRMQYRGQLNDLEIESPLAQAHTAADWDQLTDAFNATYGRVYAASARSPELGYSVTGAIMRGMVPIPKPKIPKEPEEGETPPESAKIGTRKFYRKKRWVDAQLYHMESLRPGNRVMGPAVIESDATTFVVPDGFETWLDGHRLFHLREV
T2 sequence (Q8RM02 2-168, one chain of several, further chain): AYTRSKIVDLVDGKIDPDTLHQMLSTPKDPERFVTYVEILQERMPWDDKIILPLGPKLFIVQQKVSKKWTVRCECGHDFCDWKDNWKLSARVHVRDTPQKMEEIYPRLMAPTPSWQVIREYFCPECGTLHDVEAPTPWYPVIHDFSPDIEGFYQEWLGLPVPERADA
T1 sequence (Q8RM04 whole entry, one chain of several): as the sequence (Q8RM04 whole entry, one chain of several) above
T1 sequence (Q8RM02 2-168, one chain of several, further chain): as the sequence (Q8RM02 2-168, one chain of several, further chain) above

In the case of `Nc1ncnc2c1ncn2[C@@H]1O[C@H](COP(=O)(O)O)[C@@H](O)[C@H]1O` [AMP], the X-ray crystal structure result in series [1] is “with AMP bound and no acetone visible in the density”.
For the molecule `Nc1ncnc2c1ncn2[C@@H]1O[C@H](COP(=O)(O)OP(=O)(O)OP(=O)(O)O)[C@@H](O)[C@H]1O` [ATP], the acetone carboxylation activity result in series [2] is “actively catalyzed the ATP- and HCO3 ^− -dependent carboxylation of acetone to acetoacetate”. In addition, the “coupled spectrophotometric assay with 3-hydroxybutyrate dehydrogenase” value in series [3] (with acetone and HCO3-) is “actively catalyzed the ATP- and HCO3 ^− -dependent carboxylation of acetone to acetoacetate”.
As to `CC(C)=O` [acetone], the “coupled spectrophotometric assay with 3-hydroxybutyrate dehydrogenase” value in series [3] (ATP and HCO3- dependent carboxylation to acetoacetate) is “actively catalyzed the ATP- and HCO3 ^− -dependent carboxylation of acetone to acetoacetate”.

B1: acetone carboxylase α subunit (AcxB) from Xanthobacter autotrophicus Py2, recombinant (natural protein, UniProt Q8RM03 1-776, looked up)
chain: MNVTVDQSTLAGATRGIVRGGETLKEHRDRLMAATKATGRYAGLKTLELREREPILYNKLFSRLRAGVVDARETAKKIAASPIVEQEGELCFTLYNAAGDSLLTSTGIIIHVGTMGAAIKYMIENNWEANPGVHDKDIFCNNDSLIGNVHPCDIHTIVPIFWEGELIGWVGGVTHVIDTGAVGPGSMATGQVQRFGDGYSITCRKVGANDTLFRDWLHESQRMVRTTRYWMLDERTRIAGCHMIRKLVEEVVAEEGIEAYWKFAYEAVEHGRLGLQARIKAMTIPGTYRQVGFVDVPYAHEDVRVPSDFAKLDTIMHAPCEMTIRRDGTWRLDFEGSSRWGWHTYNAHQVSFTSGIWVMMTQTLIPSEMINDGAAYGTEFRLPKGTWMNPDDRRVAFSYSWHFLVSAWTALWRGLSRSYFGRGYLEEVNAGNANTSNWLQGGGFNQYDEIHAVNSFECAANGTGATAVQDGLSHAAAIWNPEGDMGDMEIWELAEPLVYLGRQIKASSGGSGKYRGGCGFESLRMVWNAKDWTMFFMGNGHISSDWGLMGGYPAASGYRFAAHKTNLKELIASGAEIPLGGDTDPENPTWDAMLPDAQIKRDKQAITTEEMFSDYDLYLNYMRGGPGFGDPLDREPQAVADDINGGYVLERFAGEVYGVVVRKGADGQYGVDEAGTAAARAQIRKDRLAKSVPVSEWMKGEREKILAKDAGTQVRQMFAASFKLGPRFEKDFRTFWSLPDSWTLPEEEIGVPTYGSRYSMDISELPDVHTVQFVEE
notes: acetone carboxylase α subunit (75 kDa), gene acxB (Xaut_3510), X. autotrophicus Py2; amplified from the start to the stop codon; Subunit of the (αβγ)2 heterohexamer; The initial structure was solved from selenomethionine-labelled protein; also called AC α; Xaut_3510; source: E. coli BL21(DE3), co-expressed with the β and γ subunits, purified (His-NTA, desalting)
Turning to B1, in series [4], the binding result is “binds”.
